In paper PMC9126943, “ADAMTS4-specific MR probe to assess aortic aneurysms in vivo using synthetic peptide libraries” (Nature Communications, 2022):
Values joined by “and” are separate entries in the source; they are usually repeats but may differ in a detail not shown here. Equal entries are not always repeated. Where a SMILES comes first, the peptide text is derived from it. Bridges are numbered along the chain shown (N, C = ends). The star is where a group is joined. DOTA = O=C(O)CN1CCN(CC(=O)O)CCN(CC(=O)*)CCN(CC(=O)O)CC1

Target: T1, ADAMTS4 in the aneurysmal aortic wall of ApoE−/− mice (Mus musculus, UniProt Q8BNJ2)
T1 construct: from tissue
T1 sequence (Q8BNJ2 209-833): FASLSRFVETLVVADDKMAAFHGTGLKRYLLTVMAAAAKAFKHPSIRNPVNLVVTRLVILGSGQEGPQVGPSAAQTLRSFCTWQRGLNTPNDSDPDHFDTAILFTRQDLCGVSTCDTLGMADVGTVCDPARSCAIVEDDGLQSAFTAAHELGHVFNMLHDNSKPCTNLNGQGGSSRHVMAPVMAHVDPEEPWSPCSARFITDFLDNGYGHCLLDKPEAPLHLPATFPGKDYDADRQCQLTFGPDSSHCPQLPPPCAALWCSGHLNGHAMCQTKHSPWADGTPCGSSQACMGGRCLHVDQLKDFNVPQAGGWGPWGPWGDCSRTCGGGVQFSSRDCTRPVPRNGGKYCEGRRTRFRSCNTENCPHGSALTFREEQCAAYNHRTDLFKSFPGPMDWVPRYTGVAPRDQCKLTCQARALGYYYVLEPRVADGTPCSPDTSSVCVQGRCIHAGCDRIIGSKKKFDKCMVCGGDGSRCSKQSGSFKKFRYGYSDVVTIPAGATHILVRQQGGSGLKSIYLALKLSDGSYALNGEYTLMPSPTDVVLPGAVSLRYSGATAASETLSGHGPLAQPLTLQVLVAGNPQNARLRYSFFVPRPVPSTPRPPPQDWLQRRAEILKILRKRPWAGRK
Assay: In vivo MRI, cross-sectional study (2 and 4 weeks AngII, sham)
Conditions: for CNR after administration, individual animals: one line per mouse
Experimental: All procedures and animal maintenance were performed according to the guidelines and regulations of the Federation of Laboratory Animal Science Associations (FELASA) and the local Guidelines and Provisions for Implementation of the Animal Welfare Act. The animal studies were approved by the local authorities (Lageso Berlin.) Mice were obtained from the Research Institute of Experimental Medicine at the Charité Berlin and maintained under barrier conditions, including a dark/light cycle of 12 h, an ambient temperature of 20 °C, and a humidity of 45%. A standard laboratory diet and water were provided ad libitum. For aneurysm induction, male 8-week-old apolipoprotein-E knockout (ApoE^−/−) (B6.129P2-ApoE^tm1Unc/J) mice underwent implantation of osmotic minipumps (Alzet model 2004, Durect Corp). Osmotic minipumps were implanted subcutaneously in the dorsal neck region and continuously delivered angiotensin II (AngII, Merck KGaA, Darmstadt, Germany) (1000 ng/kg/min) for up to 28 days (n = 32). Sham-operated mice (n = 10) served as the control group, receiving saline for 28 days instead of AngII via the osmotic minipumps.
For the cross-sectional study, MR imaging was performed after two and 4 weeks of AngII-infusion (n = 10 per group). […]
MR imaging was performed using a clinical 3 T Siemens system (Biograph, Siemens Healthcare Solutions, Erlangen, Germany). […] Following anesthesia injection, the animals were positioned in a prone position, and body temperature (37 °C) was monitored using an MR-compatible heating system (Model 1025, SA Instruments Inc, Stony Brook, NY) to avoid rapid cooling. […]
Analysis of resulting MR images was performed using OsiriX (version 7.1, OsiriX Foundation, Bernex, Switzerland). […] In order to assess the signal intensities, regions of interest (ROIs) were measured as areas of signal enhancement, which were co-localized with areas of aneurysmal-aortic tissue. For these areas, the CNR was calculated using the following formula: CNR = (Combined vessel-wall and aneurysmal-aortic-tissue-signal − blood-signal)/standard-deviation-signal (noise). […]

Question: What does the source list for `N=C(N)NCCC[C@@H]1NC(=O)[C@H](CCCNC(=N)N)NC(=O)[C@H](CO)NC(=O)[C@@H](N)CSSC[C@@H](C(=O)N[C@@H](CO)C(=O)NCC(=O)NCC(=O)N[C@@H](CO)C(=O)NCC(=O)NCC(=O)N[C@@H](CCCCNC(=O)CN2CCN(CC(=O)O)CCN(CC(=O)O)CCN(CC(=O)O)CC2)C(=O)NCC(N)=O)NC(=O)CNC1=O` (Gd complex, metal not drawn) [ADAMTS4-specific probe] (H-CSRRGCSGGSGGK(DOTA)G-NH2; disulfide 1-6)?
Answer: CNR after administration, individual animals (4 weeks AngII (4w)): 13.92 and 11.1 and 12.72 and 12.01 and 12.59 and 22.52 and 20.4 and 10.53 and 14.06 and 16.11; CNR of the mice analysed by ICP-MS (Figure 7a) (individual mice, n = 7): 9.44 and 11.51 and 11.44 and 12.92 and 6.96 and 7.76 and 7.00; CNR after administration, individual animals (sham (s)): 6.04 and 7.8 and 7.62 and 6.96 and 7.76 and 7 and 7.77 and 7.23 and 7.52
